In patent publication EP1806348A2, “Pyrido (2,3-D)Pyrimidines as inhibitors of cellular proliferation” (Warner-Lambert Company LLC, priority 1997, dated 1998):

Legend:
Assay type in all cases: biochemical
cdk2/cyclinE = cdk2/cyclinE (Homo sapiens, UniProt P24941); assay: Cyclin-dependent kinase assay (cdk2/cyclinE); conditions: Table 1; read-out: cdk2/E IC50
Description: (§1) All components except the ATP were added to the wells, and the plate was placed on a plate mixer for 2 minutes. […] The reaction was terminated by addition of 0.1 mL of 20% TCA. The plate was kept at 4°C for at least 1 hour to allow the substrate to precipitate. The wells were then washed five times with 0.2 mL of 10% TCA and ^32P incorporation determined with a beta plate counter (Wallac Inc., Gaithersburg, MD).

cdk4/D = cdk4/D (Homo sapiens, UniProt P11802); assay: Cyclin-dependent kinase 4 (cdk4) enzyme assay, 32P incorporation into retinoblastoma; conditions: Table 1; 25 µM ATP, retinoblastoma substrate
cdk4/D, sequence (P11802 whole entry): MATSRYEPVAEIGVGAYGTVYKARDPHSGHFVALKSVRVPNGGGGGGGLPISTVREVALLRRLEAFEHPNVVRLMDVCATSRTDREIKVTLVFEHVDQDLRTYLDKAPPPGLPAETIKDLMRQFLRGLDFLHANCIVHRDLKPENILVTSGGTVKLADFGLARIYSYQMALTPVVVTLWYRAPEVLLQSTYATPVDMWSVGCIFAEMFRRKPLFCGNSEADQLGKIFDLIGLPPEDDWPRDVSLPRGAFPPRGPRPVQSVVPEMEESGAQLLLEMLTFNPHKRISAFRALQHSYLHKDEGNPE
cdk4/D, sequence (P24385 whole entry, further chain): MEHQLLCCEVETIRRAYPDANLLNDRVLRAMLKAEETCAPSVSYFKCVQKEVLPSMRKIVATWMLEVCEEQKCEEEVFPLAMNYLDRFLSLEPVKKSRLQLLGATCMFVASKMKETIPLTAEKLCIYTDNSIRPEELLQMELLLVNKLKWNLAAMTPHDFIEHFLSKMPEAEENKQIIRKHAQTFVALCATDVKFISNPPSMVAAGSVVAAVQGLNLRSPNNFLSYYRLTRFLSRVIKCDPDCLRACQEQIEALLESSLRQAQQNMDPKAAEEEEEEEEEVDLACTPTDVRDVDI
Description: A typical assay, for instance, measures inhibitory activity against the cyclin D dependent kinase 4 enzyme (cdk4/D). […] The cdk 4 assay was carried out as follows.
as §1, with “trichloroacetic acid (TCA).” for “TCA.”, “incorporation was” for “incorporation”

cdc2/cyclinB = cdc2/cyclinB (Homo sapiens, UniProt P06493); assay: Cyclin-dependent kinase assay (cdc2/cyclinB); conditions: Table 1; read-out: cdk1/B IC50
cdc2/cyclinB, sequence (P06493 whole entry): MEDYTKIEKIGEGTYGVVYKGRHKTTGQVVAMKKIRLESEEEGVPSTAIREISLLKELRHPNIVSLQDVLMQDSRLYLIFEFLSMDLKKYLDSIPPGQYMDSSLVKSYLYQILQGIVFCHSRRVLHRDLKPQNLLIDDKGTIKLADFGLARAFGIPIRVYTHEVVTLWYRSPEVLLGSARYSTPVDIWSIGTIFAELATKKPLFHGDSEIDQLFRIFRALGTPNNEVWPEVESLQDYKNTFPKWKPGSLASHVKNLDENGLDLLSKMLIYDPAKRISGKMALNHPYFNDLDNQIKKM
cdc2/cyclinB, sequence (P14635 whole entry, further chain): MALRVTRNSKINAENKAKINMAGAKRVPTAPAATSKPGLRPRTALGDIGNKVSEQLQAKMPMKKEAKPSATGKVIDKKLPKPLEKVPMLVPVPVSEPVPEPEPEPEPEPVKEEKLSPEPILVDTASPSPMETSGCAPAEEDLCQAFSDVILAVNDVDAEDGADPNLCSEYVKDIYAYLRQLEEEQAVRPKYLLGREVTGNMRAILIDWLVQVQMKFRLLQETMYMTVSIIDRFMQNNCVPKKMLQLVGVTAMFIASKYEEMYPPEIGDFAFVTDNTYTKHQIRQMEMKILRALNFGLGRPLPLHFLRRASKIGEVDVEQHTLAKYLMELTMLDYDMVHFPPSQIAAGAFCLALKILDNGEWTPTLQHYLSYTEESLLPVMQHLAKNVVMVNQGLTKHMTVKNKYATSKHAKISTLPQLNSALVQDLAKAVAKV
Description: as §1

[1] = target: T1, mouse PDGF-β receptor tyrosine kinase (Mus musculus, UniProt P05622); assay: PDGF receptor tyrosine kinase assay; conditions: Table 3
T1 construct: amplify a fragment of DNA that codes for the intracellular tyrosine kinase domain; made in house; host or cells: SF9 insect cells (baculovirus)
T1 sequence (P05622 599-961 limits assumed): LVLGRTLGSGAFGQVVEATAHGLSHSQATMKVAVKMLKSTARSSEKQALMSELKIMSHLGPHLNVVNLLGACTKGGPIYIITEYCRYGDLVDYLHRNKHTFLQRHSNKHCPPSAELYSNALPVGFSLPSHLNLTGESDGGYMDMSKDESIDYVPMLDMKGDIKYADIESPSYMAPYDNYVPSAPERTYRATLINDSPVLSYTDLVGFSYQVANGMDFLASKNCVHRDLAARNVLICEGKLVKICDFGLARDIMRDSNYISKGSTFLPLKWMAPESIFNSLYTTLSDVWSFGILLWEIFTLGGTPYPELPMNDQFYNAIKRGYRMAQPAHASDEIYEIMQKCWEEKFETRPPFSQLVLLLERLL
Excerpt: (§2) Full-length cDNAs for the mouse PDGF-β and human FGF-1 (flg) receptor tyrosine kinases were obtained from J. Escobedo and prepared as described in J. Biol. Chem., 1991;262:1482-1487. PCR primers were designed to amplify a fragment of DNA that codes for the intracellular tyrosine kinase domain. The fragment was inserted into a baculovirus vector, cotransfected with AcMNPV DNA, and the recombinant virus isolated. SF9 insect cells were infected with the virus to overexpress the protein, and the cell lysate was used for the assay. Assays were performed in 96-well plates (100 µL/incubation/well), and conditions were optimized to measure the incorporation of ^32P from γ^32P-ATP into a glutamate-tyrosine co-polymer substrate. Briefly, to each well was added 82.5 µL of incubation buffer containing 25 mM Hepes (pH 7.0), 150 mM NaCl, 0.1% Triton X-100, 0.2 mM PMSF, 0.2 mM Na3VO4, 10 mM MnCl2, and 750 µg/mL of Poly (4:1) glutamate-tyrosine followed by […] of inhibitor and 5 µL of enzyme lysate (7.5 µg/µL FGF-TK or 6.0 µg/µL PDGF-TK) to initiate the reaction. Following a 10 minute incubation at 25°C, […] of γ^32P-ATP (0.4 µCi plus 50 µM ATP) was added to each well, and samples were incubated for an additional 10 minutes at 25°C. The reaction was terminated by the addition of 100 µL of 30% trichloroacetic acid (TCA) containing 20 mM sodium pyrophosphate and precipitation of material onto glass fiber mats (Wallac). Filters were washed three times with 15% TCA containing 100 mM sodium pyrophosphate, and the radioactivity retained on the filters counted in a Wallac 1250 Betaplate reader. Nonspecific activity was defined as radioactivity retained on the filters following incubation of samples with buffer alone (no enzyme). Specific enzymatic activity (enzyme plus buffer) was defined as total activity minus nonspecific activity. […]

cdk2/cyclinA = cdk2/cyclinA (Homo sapiens, UniProt P24941); assay: Cyclin-dependent kinase assay (cdk2/cyclinA); conditions: Table 1
Description: as §1

[2] = target: T2, human FGF-1 (flg) receptor tyrosine kinase (Homo sapiens, UniProt P11362); assay: FGF receptor tyrosine kinase assay; conditions: Table 3
T2 construct: amplify a fragment of DNA that codes for the intracellular tyrosine kinase domain; made in house; host or cells: SF9 insect cells (baculovirus)
T2 sequence (P11362 478-767 limits assumed): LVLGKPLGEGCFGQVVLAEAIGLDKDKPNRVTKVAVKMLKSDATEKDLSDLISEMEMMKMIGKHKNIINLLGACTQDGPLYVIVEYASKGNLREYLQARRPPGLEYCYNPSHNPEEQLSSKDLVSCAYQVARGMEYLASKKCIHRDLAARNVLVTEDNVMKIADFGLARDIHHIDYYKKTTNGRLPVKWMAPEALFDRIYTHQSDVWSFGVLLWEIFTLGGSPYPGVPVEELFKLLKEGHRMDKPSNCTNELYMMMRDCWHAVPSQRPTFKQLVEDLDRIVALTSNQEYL
Excerpt: as §2

| SMILES | IC50 (cdk2/cyclinE) | IC50 (cdk4/D) | IC50 (cdc2/cyclinB) | IC50 [1] | IC50 (cdk2/cyclinA) | IC50 [2] |
| --- | --- | --- | --- | --- | --- | --- |
| O=c1ccc2cnc(Nc3ccccc3)nc2[nH]1 [Example 32, 2-Phenylamino-8H-pyrido[2,3-d]pyrimidin-7-one] | 12.8 µM |  | 32.6 µM |  | 4.66 µM |  |
| CCCn1c(=O)ccc2cnc(Nc3ccccc3)nc21 [Example 41, 2-Phenylamino-8-propyl-8H-pyrido[2,3-d]pyrimidin-7-one] | 0.112 µM | 0.55 µM | 0.299 µM | 4.96 µM | 0.05 µM | 6.6 µM |
| CC(C)Cn1c(=O)ccc2cnc(Nc3ccccc3)nc21 [Example 42, 8-Isobutyl-2-phenylamino-8H-pyrido[2,3-d]pyrimidin-7-one] |  | 0.4 µM |  | 3.69 µM |  | 4.06 µM |
| CCn1c(=O)ccc2cnc(NC(C)(C)C)nc21 [Example 46, 2-tert-Butylamino-8-ethyl-8H-pyrido[2,3-d]pyrimidin-7-one] |  | 5.3 µM | 3.41 µM |  |  |  |
| CCn1c(=O)ccc2cnc(NC(C)C)nc21 [Example 47, 8-Ethyl-2-isopropylamino-8H-pyrido[2,3-d]pyrimidin-7-one] |  | 3.7 µM | 3.55 µM |  |  |  |
| CCn1c(=O)ccc2cnc(Nc3ccc(N4CCN(C)CC4)cc3)nc21 [Example 53, 8-Ethyl-2-[4-(4-methylpiperazin-1-yl)-phenylamino]-8H-pyrido[2,3-d]pyrimidin-7-one] | 1.19 µM | 0.085 µM | 1.88 µM |  | 0.339 µM |  |
| CCn1c(=O)ccc2cnc(Nc3cccc(OC(F)(F)C(F)F)c3)nc21 [Example 54, 8-Ethyl-2-[3-(1,1,2,2-tetrafluoroethoxy)-phenylamino]-8H-pyrido[2,3-d]pyrimidin-7-one] | 1.2 µM | 7.83 µM | 0.091 µM |  | 0.238 µM |  |
| Cn1c(=O)ccc2cnc(Nc3ccccc3)nc21 [Example 61, 8-Methyl-2-phenylamino-8H-pyrido[2,3-d]pyrimidin-7-one] | 0.86 µM | 6.9 µM | 1.76 µM |  | 0.49 µM |  |
| O=c1ccc2cnc(Nc3ccccc3)nc2n1CCCOc1ccccc1 [Example 87, 8-(3-Phenoxypropyl)-2-phenylamino-8H-pyrido[2,3-d]pyrimidin-7-one] |  |  | 1.08 µM |  |  |  |
| CCn1c(=O)ccc2cnc(Nc3ccc(F)cc3)nc21 [Example 88, 8-Ethyl-2-(4-fluorophenylamino)-8H-pyrido[2,3-d]pyrimidin-7-one] | 0.28 µM | 1.3 µM | 2.07 µM |  | 0.44 µM |  |
| CCn1c(=O)ccc2cnc(Nc3cccc(F)c3OC)nc21 [Example 91, 8-Ethyl-2-(3-fluoro-2-methoxyphenylamino)-8H-pyrido[2,3-d]pyrimidin-7-one] |  | 9 µM |  |  |  |  |
| CCNc1ncc2ccc(=O)n(-c3ccccc3)c2n1 [Example 100, 2-Ethylamino-8-phenyl-8H-pyrido[2,3-d]pyrimidin-7-one] |  | 19 µM |  |  |  |  |
| O=c1ccc2cnc(Nc3ccccc3)nc2n1C1CCCC1 [Example 108, 8-Cyclopentyl-2-phenylamino-8H-pyrido[2,3-d]pyrimidin-7-one] | 0.11 µM | 0.21 µM | 0.19 µM | 4.18 µM | 0.012 µM | 2.98 µM |

More lines, now with the values ahead:

| IC50 (cdk2/cyclinE) | IC50 (cdk4/D) | IC50 (cdc2/cyclinB) | IC50 [1] | IC50 (cdk2/cyclinA) | IC50 [2] | SMILES |
| --- | --- | --- | --- | --- | --- | --- |
| 0.41 µM | 0.752 µM | 1.02 µM | 1.78 µM | 0.129 µM | 3.3 µM | CCn1c(=O)ccc2cnc(Nc3ccccc3)nc21 [Example 18, 8-Ethyl-2-phenylamino-8H-pyrido[2,3-d]pyrimidin-7-one] |
| 0.126 µM | 0.15 µM | 0.44 µM |  | 0.031 µM |  | CC(C)n1c(=O)ccc2cnc(Nc3ccccc3)nc21 [Example 43, 8-Isopropyl-2-phenylamino-8H-pyrido[2,3-d]pyrimidin-7-one] |
|  |  | 16.7 µM |  | 6.46 µM |  | CCn1c(=O)ccc2cnc(NCc3ccccc3)nc21 [Example 44, 2-Benzylamino-8-ethyl-8H-pyrido[2,3-d]pyrimidin-7-one] |
| 3.93 µM | 12 µM | 9.23 µM |  | 2.46 µM |  | CCNc1ncc2ccc(=O)n(CC)c2n1 [Example 45, 8-Ethyl-2-ethylamino-8H-pyrido[2,3-d]pyrimidin-7-one] |
| 0.592 µM | 3.3 µM | 2.61 µM |  | 0.23 µM |  | CCn1c(=O)ccc2cnc(NC3CCCCC3)nc21 [Example 48, 2-Cyclohexylamino-8-ethyl-8H-pyrido[2,3-d]pyrimidin-7-one] |
| 0.422 µM | 0.6 µM | 0.665 µM |  | 0.134 µM |  | CCn1c(=O)ccc2cnc(Nc3ccc(OC)cc3)nc21 [Example 51, 8-Ethyl-2-(4-methoxyphenylamino)-8H-pyrido[2,3-d]pyrimidin-7-one] |
|  |  | 21.6 µM |  | 38.1 µM |  | Cn1c(=O)ccc2cnc(NCc3ccccc3)nc21 [Example 63, 2-Benzylamino-8-methyl-8H-pyrido[2,3-d]pyrimidin-7-one] |
| 0.068 µM | 0.014 µM | 0.141 µM |  | 0.028 µM |  | CCC(CC)n1c(=O)ccc2cnc(Nc3ccc(N4CCN(C)CC4)cc3)nc21 [Example 77, 8-(1-Ethylpropyl)-2-[4-(4-methylpiperazin-1-yl)-phenylamino]-8H-pyrido[2,3-d]pyrimidin-7-one] |
| 2.94 µM | 1.3 µM | 0.74 µM |  | 2.24 µM |  | CCN(CC)c1ccc(Nc2ncc3ccc(=O)n(CC)c3n2)cc1 [Example 78, 2-(4-Diethylamino-phenylamino)-8-ethyl-8H-pyrido[2,3-d]pyrimidin-7-one] |
|  | 1 µM |  |  |  |  | CCn1c(=O)ccc2cnc(Nc3ccc(OC)c(F)c3)nc21 [Example 90, 8-Ethyl-2-(3-fluoro-4-methoxyphenylamino)-8H-pyrido[2,3-d]pyrimidin-7-one] |
| 1.77 µM | 0.38 µM | 0.78 µM |  | 0.28 µM |  | CCn1c(=O)ccc2cnc(Nc3ccc(N(C)C)cc3)nc21 [Example 93, 2-(4-Dimethylamino-phenylamino)-8-ethyl-8H-pyrido[2,3-d]pyrimidin-7-one] |
|  |  |  | 0.099 µM |  | 0.099 µM | CCN(CC)CCOc1ccc(Nc2ncc3ccc(=O)n(C4CCCCC4)c3n2)cc1C [Example 150, 8-Cyclohexyl-2-[4-(2-diethylamino-ethoxy)-3-methyl-phenylamino]-8H-pyrido[2,3-d]pyrimidin-7-one] |
| 0.024 µM | 0.182 µM | 0.065 µM |  | 0.009 µM |  | O=c1ccc2cnc(Nc3ccccc3)nc2n1C1CCCCCC1 [Example 155, 8-Cycloheptyl-2-phenylamino-8H-pyrido[2,3-d]pyrimidin-7-one] |
|  |  |  | 17.1 µM |  | 19.7 µM | O=c1ccc2cnc(Nc3ccc(-n4cccn4)cc3)nc2n1C1CCCCC1 [Example 162, 8-Cyclohexyl-2-(4-pyrazol-1-yl-phenylamino)-8H-pyrido[2,3-d]pyrimidin-7-one] |
|  |  |  | 33.1 µM |  | 20.6 µM | CC1CC(C)CN(c2ccc(Nc3ncc4ccc(=O)n(C5CCCCC5)c4n3)cc2)C1 (centres unmarked) [Example 167, 8-Cyclohexyl-2-[4-(3,5-dimethyl-piperidin-1-yl)-phenylamino]-8H-pyrido[2,3-d]pyrimidin-7-one] |
|  |  |  | 1.06 µM |  | 1.45 µM | O=c1ccc2cnc(Nc3ccc(N4CCC(CCO)CC4)cc3)nc2n1C1CCCC1 [Example 196, 8-Cyclopentyl-2-{4-[4-(2-hydroxy-ethyl)-piperidin-1-yl]-phenylamino}-8H-pyrido[2,3-d]pyrimidin-7-one] |
